This is an account of results in ChEMBL document CHEMBL1130437, “Discovery of selective dopamine D4 receptor antagonists: 1-Aryloxy-3-(4-aryloxypiperidinyl)-2-propanols” (Bioorg Med Chem Lett, 1997).

Each structure is given as a SMILES string.

Holding throughout (format): cell-based
The target of one test is T1, D(4) dopamine receptor (Homo sapiens, UniProt P21917).
T1 sequence (P21917 whole entry): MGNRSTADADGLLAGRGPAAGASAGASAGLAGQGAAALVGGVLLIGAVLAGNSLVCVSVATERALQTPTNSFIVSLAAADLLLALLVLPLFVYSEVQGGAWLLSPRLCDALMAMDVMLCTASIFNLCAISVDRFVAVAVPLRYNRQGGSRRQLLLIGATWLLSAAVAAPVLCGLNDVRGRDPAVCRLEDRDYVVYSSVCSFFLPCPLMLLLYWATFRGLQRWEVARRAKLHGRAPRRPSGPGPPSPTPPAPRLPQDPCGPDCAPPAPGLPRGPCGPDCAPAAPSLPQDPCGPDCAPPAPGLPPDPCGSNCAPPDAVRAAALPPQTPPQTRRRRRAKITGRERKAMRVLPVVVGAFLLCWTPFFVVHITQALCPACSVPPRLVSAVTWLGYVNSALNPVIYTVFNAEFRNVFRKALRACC
The test is described as follows: Binding affinity against human cloned D4 receptor transfected in CHO-K1 cells by [3H]- spiperone displacement.

A further test deals with D(3) dopamine receptor (Homo sapiens, UniProt P35462). In words: Binding affinity against cloned human D3 receptor transfected in CHO-K1 cells using [3H]- spiperone as radioligand.
A further test addresses D(2) dopamine receptor (Homo sapiens, UniProt P14416). In words: Binding affinity against cloned human D2 receptor transfected in CHO-K1 cells using [3H]- spiperone as radioligand.

Chain of D(3) dopamine receptor (P35462 whole entry): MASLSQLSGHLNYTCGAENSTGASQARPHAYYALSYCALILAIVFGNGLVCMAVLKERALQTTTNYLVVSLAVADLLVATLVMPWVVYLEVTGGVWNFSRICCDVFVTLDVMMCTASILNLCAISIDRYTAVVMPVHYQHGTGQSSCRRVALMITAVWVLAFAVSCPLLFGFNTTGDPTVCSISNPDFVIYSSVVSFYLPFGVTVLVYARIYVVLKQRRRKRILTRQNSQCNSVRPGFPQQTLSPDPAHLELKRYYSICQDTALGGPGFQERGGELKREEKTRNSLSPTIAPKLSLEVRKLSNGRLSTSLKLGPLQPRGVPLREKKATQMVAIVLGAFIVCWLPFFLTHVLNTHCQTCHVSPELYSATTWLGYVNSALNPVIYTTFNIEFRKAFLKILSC
Chain of D(2) dopamine receptor (P14416 whole entry): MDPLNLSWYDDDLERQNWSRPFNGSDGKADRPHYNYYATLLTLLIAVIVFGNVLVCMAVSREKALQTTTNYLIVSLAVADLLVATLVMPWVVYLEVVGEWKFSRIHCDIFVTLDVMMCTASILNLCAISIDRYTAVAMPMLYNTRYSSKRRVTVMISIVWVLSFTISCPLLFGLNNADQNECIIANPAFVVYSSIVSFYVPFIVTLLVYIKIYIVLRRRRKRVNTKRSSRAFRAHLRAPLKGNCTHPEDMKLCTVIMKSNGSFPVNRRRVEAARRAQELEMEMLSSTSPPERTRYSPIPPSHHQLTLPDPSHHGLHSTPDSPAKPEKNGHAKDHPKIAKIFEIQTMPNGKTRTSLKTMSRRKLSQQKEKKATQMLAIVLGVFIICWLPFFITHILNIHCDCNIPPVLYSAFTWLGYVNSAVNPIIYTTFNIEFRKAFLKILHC

`OC(COc1ccc(Cl)cc1)CN1CCC(Cc2ccccc2)CC1` (stereo not given): affinity at D(4) dopamine receptor was put at a Ki of 18 nM. This counts as double-digit nanomolar.
Still for that read-out and setting: to `Cc1ccc(CC2CCN(CC(O)COc3cccc4ccccc34)CC2)cc1` (stereo not given) belongs 52 nM; to `c1ccc(CC2CCN(CCCOc3cccc4ccccc34)CC2)cc1`, 50 nM.
Regarding `OC(COc1ccccc1)CN1CCC(Oc2ccccc2)CC1` (racemic), the Ki (in general, the dissociation constant of the complex between target and ligand, obtained from inhibition or displacement) on D(3) dopamine receptor is 537 nM; on D(2) dopamine receptor, 911 nM; at D(4) dopamine receptor, 3.6 nM.
In turn, `OC(COc1ccccc1)CN1CCC(Cc2ccccc2)CC1` (stereo not given) displayed a Ki at D(4) dopamine receptor of 34 nM.
Same read-out and setting: as for `COc1ccc(CC2CCN(CC(O)COc3cccc4ccccc34)CC2)cc1` (stereo not given), the figure is 74 nM; as for `OC(COc1cccc2ccccc12)CN1CCC(Cc2ccc(Cl)cc2)CC1` (stereo not given), 45 nM; as for `OC(COc1cccc2ccccc12)CN1CCC(Cc2ccc(F)cc2)CC1` (stereo not given), 32 nM.
On the same count and under the same terms, to `CC(COc1cccc2ccccc12)CN1CCC(Cc2ccccc2)CC1` (stereo not given) belongs 72 nM.
For `O[C@@H](COc1ccccc1)CN1CCC(Oc2ccccc2)CC1`, the inhibitory constant (Ki) on D(3) dopamine receptor was found to be 220 nM; at D(2) dopamine receptor, 244 nM; at D(4) dopamine receptor it was 2 nM.
With `OC(COc1cccc2ccccc12)CN1CCC(Cc2ccccc2)CC1` (stereo not given), the Ki on D(2) dopamine receptor was determined as 1440 nM; at D(4) dopamine receptor, 26 nM.
On to `COc1ccc(OCC(O)CN2CCC(Cc3ccccc3)CC2)cc1` (stereo not given), for which the Ki on D(4) dopamine receptor came out at 123 nM. This lies in the sub-micromolar range.
Same read-out and setting: as for `OC(COc1cccc2ccccc12)CN1CCC(Sc2ccccc2)CC1` (stereo not given), the figure is 32 nM.
As for `OC(COc1cccc2ccccc12)CN1CCC(Oc2ccccc2)CC1` (stereo not given), the Ki stood at 2340 nM on D(2) dopamine receptor and 18 nM on D(4) dopamine receptor.
`O=[N+]([O-])c1ccc(OCC(O)CN2CCC(Cc3ccccc3)CC2)cc1` (stereo not given): the Ki at D(4) dopamine receptor stood at 59 nM.
With `COC(COc1cccc2ccccc12)CN1CCC(Cc2ccccc2)CC1` (stereo not given), at D(4) dopamine receptor, the affinity, expressed as Ki, was 45 nM.
For `O[C@H](COc1ccccc1)CN1CCC(Oc2ccccc2)CC1`, the inhibition constant (Ki) on D(3) dopamine receptor is 457 nM; on D(2) dopamine receptor it was 709 nM; on D(4) dopamine receptor, 11.6 nM.
